{
  "source": "patent US8399506B2",
  "about": "“Combinations of 4 bromo-2-(4-chlorophenyl)-5-(trifluoromethyl)-1H-pyrrole-3-carbonitrile and oxidizing agents” (Janssen Pharmaceutica, NV, priority 2006, dated 2013)",
  "key": {"[1]": {"tested_on": "Chlamydomonas sphagnophila CCAP 11/36E", "assay": "Experiment 1 poison plate assay, algae species (3)", "assay_type": "cell-based", "conditions": "24-well plates, BG 11 medium, after 3 weeks of exposure, total active ingredient, ratio (I) to (II) in label", "protocol": "(§1) Synergism between component (I) and one of the components (II) was determined by a commonly used and accepted method described by Kull F. C. et al. in Applied Microbiology, 9, 538-541 (1961) using the Synergy Index, which is calculated as follows for two compounds A and B:\n(§2) [formula] wherein: • QA is the concentration of compound A in ppm, acting alone, which produced an end point (e.g. MIC), • Qa is the concentration of compound A in ppm, in the mixture, which produced an end point (e.g. MIC), • QB is the concentration of compound B in ppm, acting alone, which produced an end point (e.g. MIC), • Qb is the concentration of compound B in ppm, in the mixture, which produced an end point (e.g. MIC).\n(§3) MIC is the minimum inhibitory concentration, i.e. the lowest concentration of each test compound or mixture of test compounds sufficient to inhibit visible growth.\n(§4) When the Synergy Index is greater than 1.0, antagonism is indicated. When the SI is equal to 1.0, additivity is indicated."}, "[2]": {"tested_on": "Anabaena cylindrica CCAP 1403/2A", "assay": "Experiment 1 poison plate assay, algae species (2)", "assay_type": "cell-based", "conditions": "for MIC-values in ppm: 24-well plates, BG 11 medium, after 3 weeks of exposure, total active ingredient, ratio (I) to (II) in label", "protocol": "as §1, §2, §3, §4"}, "[3]": {"tested_on": "Artemia salina (EG Artemia Cysts, Great Salt Lake strain)", "assay": "Experiment 1 poison plate assay, Artemia salina larvae", "assay_type": "in vivo", "conditions": "Artemia salina larvae (24 hours old), artificial seawater; after 24 hours of exposure; total active ingredient; ratio (I) to (II) in label", "protocol": "as §1, §2, §3, §4"}, "[4]": {"tested_on": "Chlorella vulgaris CCAP 211/12", "assay": "Experiment 2 poison plate assay, algae species (1)", "assay_type": "cell-based", "conditions": "24-well plates, BG 11 medium, after 3 weeks of exposure, total active ingredient, ratio (I) to (II) in label", "protocol": "as §1, §2, §3, §4\n(§5) Synergism between component (I) and one of the components (II) was determined using the Synergy Index as outlined above in Experiment 1."}, "[5]": {"conditions": "buffer"}, "Tribonema sp. CCAP 880/2": {"tested_on": "Tribonema sp. CCAP 880/2", "assay": "Experiment 2 poison plate assay, algae species (4)", "assay_type": "cell-based", "protocol": "as §1, §2, §3, §4, §5"}, "[6]": {"tested_on": "Anabaena cylindrica CCAP 1403/2A", "assay": "Experiment 2 poison plate assay, algae species (2)", "assay_type": "cell-based", "conditions": "24-well plates, BG 11 medium, after 3 weeks of exposure, total active ingredient, ratio (I) to (II) in label", "protocol": "as §1, §2, §3, §4, §5"}},
  "note": "Where two headings read alike, the source gives them in different places.",
  "data": [
    {"compound": "[Na+].[O-]Cl", "note": "[(II-b), sodium hypochlorite]", "values": [
      {"measurement": "MIC-values in ppm", "setting": "[1]", "result": 107.0, "unit": "ppm"},
      {"measurement": "MIC-values in ppm", "setting": "[2]", "result": 33.8, "unit": "ppm"},
      {"measurement": "MIC-values in ppm", "setting": "[3]", "result": 200.00, "unit": "ppm"}
    ]},
    {"compound": "O=S(=O)([O-])OOS(=O)(=O)[O-].[K+].[K+]", "note": "[(II-d), potassium peroxydisulfate]", "values": [
      {"measurement": "MIC-values in ppm", "setting": "[4]", "result": 60.0, "unit": "ppm"}
    ]},
    {"compound": "N#Cc1c(-c2ccc(Cl)cc2)[nH]c(C(F)(F)F)c1Br", "note": "[(I), 4-bromo-2-(4-chlorophenyl)-5-(trifluoromethyl)-1H-pyrrole-3-carbonitrile]", "values": [
      {"measurement": "MIC-values in ppm", "setting": "[4]", "result": 107.0, "unit": "ppm"},
      {"measurement": "half-life", "setting": "[5]", "result": "a couple of days"},
      {"measurement": "half-life", "setting": "[5]; pH 8.3", "result": "a few hours"},
      {"measurement": "MIC", "setting": "Tribonema sp. CCAP 880/2; 504 h, read-out: MIC-values in ppm", "result": 107, "unit": "µg/mL"},
      {"measurement": "MIC-values in ppm", "setting": "[1]", "result": 107.0, "unit": "ppm"},
      {"measurement": "MIC", "setting": "[2]; CCAP1403/2A, 504 h, read-out: MIC-values in ppm", "result": 107, "unit": "µg/mL"},
      {"measurement": "MIC-values in ppm", "setting": "[6]; listed as (I) + (II-e) 100 + 0", "result": 19, "unit": "ppm"},
      {"measurement": "MIC-values in ppm", "setting": "[6]; listed as (I) + (II-f) 100 + 0", "result": 25.3, "unit": "ppm"},
      {"measurement": "MIC-values in ppm", "setting": "[6]; listed as (I) + (II-g) 100 + 0", "result": 6.00, "unit": "ppm"},
      {"measurement": "MIC-values in ppm", "setting": "[3]", "result": 0.13, "unit": "ppm"}
    ]},
    {"compound": "potassium superoxide [(II-e)]", "values": [
      {"measurement": "MIC-values in ppm", "setting": "[6]", "result": 45.0, "unit": "ppm"}
    ]},
    {"compound": "potassium nitrosodisulfonate [(II-g)]", "values": [
      {"measurement": "MIC-values in ppm", "setting": "[6]", "result": 80.0, "unit": "ppm"}
    ]},
    {"compound": "potassium (VI) ferrate [(II-h)]", "values": [
      {"measurement": "MIC-values in ppm", "setting": "Tribonema sp. CCAP 880/2; Tribonema sp., 24-well plates, BG 11 medium, after 3 weeks of exposure, total active ingredient, ratio (I) to (II) in label", "result": 80.0, "unit": "ppm"}
    ]},
    {"compound": "OO", "note": "[(II-a), hydrogen peroxide]", "values": [
      {"measurement": "MIC-values in ppm", "setting": "[1]", "result": 45.0, "unit": "ppm"},
      {"measurement": "MIC-values in ppm", "setting": "[2]", "result": 25.3, "unit": "ppm"}
    ]},
    {"compound": "[K+].[K+].[O-][O-]", "note": "[(II-f), potassium peroxide]", "values": [
      {"measurement": "MIC-values in ppm", "setting": "[6]", "result": 10.7, "unit": "ppm"}
    ]},
    {"compound": "[O][Cl+][O-]", "note": "[(II-c), chlorine dioxide]", "values": [
      {"measurement": "MIC-values in ppm", "setting": "[4]", "result": 9.49, "unit": "ppm"}
    ]}
  ]
}
